Assay results taken from US20250034167A1, “HETEROCYCLIC COMPOUNDS AND METHODS OF USE” (AMGEN INC., priority 2021, published 2025).
Read-outs that look alike come from different tables or passages of the source.

Assays:
[1] = molecular target: His-tagged KRAS G12D protein (Homo sapiens, UniProt P01116, G12D); test: biochemical
Method: The plate was incubated for 30 minutes at room temperature. Biotinylated KRPep-2d substrate (Amgen) was diluted to nM in Assay Buffer and 2 μL was added to all wells and incubated for 1 hour at room temperature. Detection Reagent (0.4 nM LANCE Eu-W1024 Anti-6×His (Perkin Elmer AD0401), 5 nM streptavidin-d2 (Cisbio 610SADLA)) was prepared in Assay Buffer, then 4 µL was added to the plate and incubated for 1 hour at room temperature.

[2] = test system: Phosphorylation of ERK1/2 in AsPC-1 cells; test: Phospho-ERK1/2 MSD Assay; format: cell-based
Method: Sixteen hours prior to compound treatment, AsPC-1 cells were seeded in 96-well cell culture plates at a density of 25,000 cells/well and incubated at 37° C., 5% CO2. A compound dose-response titration was diluted in growth media, added to appropriate wells of a cell culture plate, and then incubated at 37° C., 5% CO2 for 2 hours.

[3] = Homo sapiens, ASPC1, 2 h, read-out: 2 h p-ERK (AsPC-1 cells), IC50, AsPC-1 cells, 2 h compound treatment
[4] = read-out: 2 h p-ERK (AsPC-1 cells), IC50, AsPC-1 cells, 2 h compound treatment

Chain of His-tagged KRAS G12D protein (P01116 1-188 isoform P01116-2 G12D): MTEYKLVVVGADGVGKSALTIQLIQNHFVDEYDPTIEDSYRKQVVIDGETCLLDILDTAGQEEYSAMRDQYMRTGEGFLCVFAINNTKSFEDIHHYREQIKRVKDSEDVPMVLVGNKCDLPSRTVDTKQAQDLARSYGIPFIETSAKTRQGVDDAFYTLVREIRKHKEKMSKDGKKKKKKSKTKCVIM

CCC1CCCc2cc(O)cc(-c3ncc4c(N5CCC[C@@](C)(O)C5)nc(OC[C@@]56CCCN5C[C@H](F)C6)nc4c3F)c21 (single isomer, unassigned) [Example 173]
IC50 [1]: 4 nM
IC50 [2, 3]: 22 nM

CCc1c(F)ccc2cc(O)cc(-c3ncc4c(N5CCCC(O)(C(F)F)C5)nc(OC[C@@]56CCCN5C[C@H](F)C6)nc4c3F)c12 (single isomer, unassigned) [Example 40]
IC50 [1]: 15 nM
IC50 [2, 4]: 571 nM

CCc1c(F)ccc2cc(O)cc(-c3ncc4c(N5CC6CC(=O)C5C6)nc(OC[C@@]56CCCN5C[C@H](F)C6)nc4c3F)c12 (stereo partly drawn) [Example 72, 2-(7-(8-Ethyl-7-fluoro-3-hydroxynaphthalen-1-yl)-8-fluoro-2-(((2R,7aS)-2-fluorotetrahydro-1H-pyrrolizin-7a(5H)-yl)methoxy)pyrido[4,3-d]pyrimidin-4-yl)-2-azabicyclo[2.2.1]heptan-6-one]
IC50 [1]: 34 nM
IC50 [2, 3]: 3240 nM

CCc1c(F)ccc2cc(O)cc(-c3ncc4c(N5CCCC(O)(CC)C5)nc(OC[C@@]56CCCN5C[C@H](F)C6)nc4c3F)c12 (stereo partly drawn) [Example 65, 3-Ethyl-1-(7-(8-ethyl-7-fluoro-3-hydroxynaphthalen-1-yl)-8-fluoro-2-(((2R,7aS)-2-fluorotetrahydro-1H-pyrrolizin-7a(5H)-yl)methoxy)pyrido[4,3-d]pyrimidin-4-yl)piperidin-3-ol]
IC50 [1]: 3 nM
IC50 [2, 3]: 153 nM

CCc1c(F)ccc2cc(O)cc(-c3ncc4c(N5CCCC(S(C)(=O)=O)C5)nc(OC[C@@]56CCCN5C[C@H](F)C6)nc4c3F)c12 (stereo partly drawn) [Example 84, 5-Ethyl-6-fluoro-4-(8-fluoro-2-(((2R,7aS)-2-fluorotetrahydro-1H-pyrrolizin-7a(5H)-yl)methoxy)-4-(3-(methylsulfonyl)piperidin-1-yl)pyrido[4,3-d]pyrimidin-7-yl)naphthalen-2-ol]
IC50 [1]: 5 nM
IC50 [2, 3]: 1290 nM

CCc1c(F)ccc2cc(O)cc(-c3ncc4c(N5CC(CS(N)(=O)=O)C5)nc(OC[C@@]56CCCN5C[C@H](F)C6)nc4c3F)c12 [Example 82, (1-(7-(8-Ethyl-7-fluoro-3-hydroxynaphthalen-1-yl)-8-fluoro-2-(((2R,7aS)-2-fluorotetrahydro-1H-pyrrolizin-7a(5H)-yl)methoxy)pyrido[4,3-d]pyrimidin-4-yl)azetidin-3-yl)methanesulfonamide]
IC50 [1]: 33 nM
IC50 [2, 3]: > 10000 nM

CCc1c(F)ccc2cc(O)cc(-c3ncc4c(N5CC6CC(O)C(C6)C5)nc(OC[C@@]56CCCN5C[C@H](F)C6)nc4c3F)c12 (single isomer, unassigned) [Example 24]
IC50 [1]: 2 nM
IC50 [2, 4]: 14 nM

CCc1c(F)ccc2cc(O)cc(-c3ncc4c(N5CC(O)(C(N)=O)C5)nc(OC[C@@]56CCCN5C[C@H](F)C6)nc4c3F)c12 [Example 83, 1-(7-(8-Ethyl-7-fluoro-3-hydroxynaphthalen-1-yl)-8-fluoro-2-(((2R,7aS)-2-fluorotetrahydro-1H-pyrrolizin-7a(5H)-yl)methoxy)pyrido[4,3-d]pyrimidin-4-yl)-3-hydroxyazetidine-3-carboxamide]
IC50 [1]: 2 nM
IC50 [2, 3]: > 10000 nM

CCc1c(F)ccc2cc(O)cc(-c3ncc4c(N5CCC[C@@](C)(O)C5)nc(OCC5(CN(C)C)CC5)nc4c3F)c12 [Example 180, (R)-1-(2-((1-((Dimethylamino)methyl)cyclopropyl)methoxy)-7-(8-ethyl-7-fluoro-3-hydroxynaphthalen-1-yl)-8-fluoropyrido[4,3-d]pyrimidin-4-yl)-3-methylpiperidin-3-ol]
IC50 [2, 3]: 12 nM

NS(=O)(=O)[C@@H]1CCCN(c2nc(OC[C@@]34CCCN3C[C@H](F)C4)nc3c(F)c(-c4cc(O)cc5ccc(F)c(F)c45)ncc23)C1 [Example 165, (R)-1-(7-(7,8-Difluoro-3-hydroxynaphthalen-1-yl)-8-fluoro-2-(((2R,7aS)-2-fluorotetrahydro-1H-pyrrolizin-7a(5H)-yl)methoxy)pyrido[4,3-d]pyrimidin-4-yl)piperidine-3-sulfonamide]
IC50 [2, 3]: 1160 nM

CCc1c(F)ccc2cc(O)cc(-c3ncc4c(N5CCCC(O)(CF)C5)nc(OC[C@@]56CCCN5C[C@H](F)C6)nc4c3F)c12 (single isomer, unassigned) [Example 172]
IC50 [2, 4]: 86 nM

CCc1c(F)ccc2cc(O)cc(-c3ncc4c(N5CCC[C@@](C)(NC(C)=O)C5)nc(OC[C@@]56CCCN5C[C@H](F)C6)nc4c3F)c12 [Example 76, N-((R)-1-(7-(8-Ethyl-7-fluoro-3-hydroxynaphthalen-1-yl)-8-fluoro-2-(((2R,7aS)-2-fluorotetrahydro-1H-pyrrolizin-7a(5H)-yl)methoxy)pyrido[4,3-d]pyrimidin-4-yl)-3-methylpiperidin-3-yl)acetamide]
IC50 [2, 3]: 1100 nM

CCc1c(F)ccc2cccc(-c3ncc4c(N5CCC[C@@](C)(O)C5)nc(OC[C@@]56CCCN5C[C@H](F)C6)nc4c3F)c12 [Example 48, (R)-1-(7-(8-Ethyl-7-fluoronaphthalen-1-yl)-8-fluoro-2-(((2R,7aS)-2-fluorotetrahydro-1H-pyrrolizin-7a(5H)-yl)methoxy)pyrido[4,3-d]pyrimidin-4-yl)-3-methylpiperidin-3-ol]
IC50 [2, 3]: 341 nM

CCc1c(F)ccc2cc(O)cc(-c3ncc4c(N5CCCC(=O)CC5)nc(OC[C@@]56CCCN5C[C@H](F)C6)nc4c3F)c12 [Example 95, 1-(7-(8-Ethyl-7-fluoro-3-hydroxynaphthalen-1-yl)-8-fluoro-2-(((2R,7aS)-2-fluorotetrahydro-1H-pyrrolizin-7a(5H)-yl)methoxy)pyrido[4,3-d]pyrimidin-4-yl)azepan-4-one]
IC50 [2, 3]: 74 nM

CCc1c(F)ccc2cc(O)cc(-c3ncc4c(N5CCC[C@@](C)(NC(=O)OC)C5)nc(OC[C@@]56CCCN5C[C@H](F)C6)nc4c3F)c12 [Example 77, Methyl ((R)-1-(7-(8-ethyl-7-fluoro-3-hydroxynaphthalen-1-yl)-8-fluoro-2-(((2R,7aS)-2-fluorotetrahydro-1H-pyrrolizin-7a(5H)-yl)methoxy)pyrido[4,3-d]pyrimidin-4-yl)-3-methylpiperidin-3-yl)carbamate]
IC50 [2, 3]: 1530 nM

CCc1c(F)ccc2cc(O)cc(-c3ncc4c(N5CCC[C@@H](NC(=O)OC)C5)nc(OC[C@@]56CCCN5C[C@H](F)C6)nc4c3F)c12 [Example 78, Methyl ((R)-1-(7-(8-ethyl-7-fluoro-3-hydroxynaphthalen-1-yl)-8-fluoro-2-(((2R,7aS)-2-fluorotetrahydro-1H-pyrrolizin-7a(5H)-yl)methoxy)pyrido[4,3-d]pyrimidin-4-yl)piperidin-3-yl)carbamate]
IC50 [2, 3]: 244 nM

CCc1c(F)ccc2cc(O)cc(-c3ncc4c(N5CCC[C@@](C)(O)C5)nc(OC[C@@]56CCCN5C[C@H](F)C6)nc4c3C)c12 [Example 169, (R)-1-(7-(8-Ethyl-7-fluoro-3-hydroxynaphthalen-1-yl)-2-(((2R,7aS)-2-fluorotetrahydro-1H-pyrrolizin-7a(5H)-yl)methoxy)-8-methylpyrido[4,3-d]pyrimidin-4-yl)-3-methylpiperidin-3-ol]
IC50 [2, 3]: 40 nM

CCc1c(F)ccc2cc(O)cc(-c3ncc4c(N5CC6CC5C(C)(O)C6)nc(OC[C@@]56CCCN5C[C@H](F)C6)nc4c3F)c12 (stereo partly drawn) [Example 71, 2-(7-(8-Ethyl-7-fluoro-3-hydroxynaphthalen-1-yl)-8-fluoro-2-(((2R,7aS)-2-fluorotetrahydro-1H-pyrrolizin-7a(5H)-yl)methoxy)pyrido[4,3-d]pyrimidin-4-yl)-6-methyl-2-azabicyclo[2.2.1]heptan-6-ol]
IC50 [2, 3]: 1170 nM
